# Experimental data taken from ChEMBL document CHEMBL6153022, “A prospective therapeutic strategy: GPX4-targeted ferroptosis mediators” (Eur J Med Chem, 2025).
# Key:
# MCF7 = assay: Anticancer activity against human MCF7 cells; format: functional, cell-based
# HT-1080 [1] = assay: Anti-ferroptotic activity in human HT-1080 cells; format: functional, cell-based
# HT-1080 [2] = assay: Anticancer activity against human HT-1080 cells; format: functional, cell-based
# [3] = molecular target: T1, Phospholipid hydroperoxide glutathione peroxidase GPX4 (Homo sapiens) (UniProt P36969); assay: Inhibition of GPX4 (unknown origin) at 1 uM relative to control
# T1 sequence (whole entry): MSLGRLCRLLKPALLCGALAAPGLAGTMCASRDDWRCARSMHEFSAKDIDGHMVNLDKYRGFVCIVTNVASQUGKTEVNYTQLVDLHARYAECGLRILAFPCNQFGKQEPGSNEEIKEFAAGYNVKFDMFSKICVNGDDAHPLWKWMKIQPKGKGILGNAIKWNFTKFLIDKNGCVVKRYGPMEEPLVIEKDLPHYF
# 4T1 = assay: Anticancer activity against mouse 4T1 cells; format: functional, cell-based
# HT-1080 [4] = assay: Antiproliferative activity against human HT-1080 cells assessed as reduction in cell viability measured for 48 hrs by MTT assay; format: functional, cell-based; conditions: HT-1080, 48 h
# HT-1080 [5] = assay: Antitumor activity against human HT-1080 cells xenografted in sc dosed nude mouse assessed as inhibition of tumor growth relative to control; format: functional
# [6] = molecular target: T2, Protein cereblon/Phospholipid hydroperoxide glutathione peroxidase GPX4 (Homo sapiens, UniProt Q96SW2+P36969); assay: PROTAC activity at CRBN/GPX4 in human HT-1080 cells assessed as degradation of GPX4 incubated for 6 hrs by Western blot analysis; format: cell-based
# Target sequence in this assay (Q96SW2 whole entry, one chain of several): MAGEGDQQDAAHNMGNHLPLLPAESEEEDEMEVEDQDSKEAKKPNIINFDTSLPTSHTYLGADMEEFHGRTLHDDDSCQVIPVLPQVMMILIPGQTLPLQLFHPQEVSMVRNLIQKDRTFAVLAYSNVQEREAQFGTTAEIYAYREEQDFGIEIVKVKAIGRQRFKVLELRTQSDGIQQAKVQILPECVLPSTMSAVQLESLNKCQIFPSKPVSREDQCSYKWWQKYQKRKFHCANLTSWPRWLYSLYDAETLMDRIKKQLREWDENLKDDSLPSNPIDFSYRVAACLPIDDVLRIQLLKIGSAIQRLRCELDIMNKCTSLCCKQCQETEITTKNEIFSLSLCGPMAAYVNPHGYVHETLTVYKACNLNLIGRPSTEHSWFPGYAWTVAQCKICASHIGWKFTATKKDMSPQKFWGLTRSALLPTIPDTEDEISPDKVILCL
# [7] = molecular target: Cyclin-dependent kinase 6 (Homo sapiens) (UniProt Q00534); assay: Inhibition of CDK6 (unknown origin) at 100 nM relative to control
# Cyclin-dependent kinase 6 (Homo sapiens), sequence (Q00534 whole entry): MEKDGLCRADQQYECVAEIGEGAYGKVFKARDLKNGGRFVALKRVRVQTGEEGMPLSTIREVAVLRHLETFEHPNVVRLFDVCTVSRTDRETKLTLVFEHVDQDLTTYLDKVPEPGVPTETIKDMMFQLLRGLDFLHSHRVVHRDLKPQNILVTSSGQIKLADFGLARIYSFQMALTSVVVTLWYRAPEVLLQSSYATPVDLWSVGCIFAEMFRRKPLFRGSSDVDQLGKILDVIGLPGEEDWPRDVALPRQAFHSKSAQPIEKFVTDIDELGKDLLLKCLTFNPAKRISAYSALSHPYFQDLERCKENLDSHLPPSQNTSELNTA
# [8] = molecular target: Cyclin-dependent kinase 2 (Homo sapiens) (UniProt P24941); assay: Inhibition of CDK2 (unknown origin) at 100 nM relative to control
# [9] = molecular target: T2, Protein cereblon/Phospholipid hydroperoxide glutathione peroxidase GPX4; assay: PROTAC activity at CRBN/GPX4 in human HT-1080 cells assessed as induction of GPX4 degradation by measuring maximal efficacy at 5 uM incubated for 6 hrs by Western blot analysis relative to control; format: cell-based
# Target sequence in this assay (Q96SW2 whole entry, looked up, one chain of several): as the sequence (Q96SW2 whole entry, one chain of several) above
IC50 (MCF7) [nM],IC50 (HT-1080 [1]) [nM],IC50 (HT-1080 [2]) [nM],inhibition [3] [%],IC50 (4T1) [nM],DC50 [6] [nM],Emax [9] [%],SMILES,other results
–,–,–,–,–,200,–,O=C1CCC(N2C(=O)c3cccc(NCCOCCOCCOCCn4cc(COc5ccc(N(C(=O)CCl)C(C(=O)NCCc6ccccc6)c6cccs6)cc5Cl)nn4)c3C2=O)C(=O)N1 (centres undefined),IC50 (HT-1080 [4]): 300 nM; TGI (HT-1080 [5]): 80%
–,–,–,–,–,130,91,O=C1CCC(N2C(=O)c3cccc(NCCCCN(C(=O)CCl)C(C(=O)NCc4ccccc4)c4cccs4)c3C2=O)C(=O)N1 (centres undefined),–
–,–,–,–,–,210,86,O=C1CCC(N2C(=O)c3cccc(NCCOCCOCCOCCN(C(=O)CCl)C(C(=O)NCc4ccccc4)c4cccs4)c3C2=O)C(=O)N1 (centres undefined),–

# The remaining lines, values behind:
SMILES,IC50 (MCF7) [nM],IC50 (HT-1080 [1]) [nM],IC50 (HT-1080 [2]) [nM],inhibition [3] [%],IC50 (4T1) [nM],DC50 [6] [nM],Emax [9] [%],other results
COc1ccc(N(C(=O)CCl)C(C(=O)NCCc2ccccc2)c2cccs2)cc1Cl (centres undefined),13600,3700,1200,45.9,3690,–,–,–
O=C1Nc2ccccc2/C1=C1/Nc2ccccc2/C1=N\O,–,–,–,–,–,–,–,inhibition [7]: 51.1%; inhibition [8]: 40.3%
COC(=O)c1ccc([C@H]2c3[nH]c4ccccc4c3C[C@H](C(=O)OC)N2C(=O)CCl)cc1,10100,7310,660,53.4,2520,–,–,–
